Structures can show the parent of a compound that is named as a salt.
These compounds were tested on K562 cells, human proerythroblast cells (assay: Hemoglobin production in K562 cells (fluorescence of the porphyrin ring)). Conditions: 144 h, test compound 6 μM, 3+3 days, non-stimulated state = 100%, read-out: production amount of hemoglobin, % of control (6 μM).
Type: cell-based
Procedure: K562 cells (obtained from ATCC), which are human proerythroblast cells, were seeded at a density of 1×10^5 cells/1 mL on a 24-well plate by using complete medium (RPMI-1640 medium comprising 10% bovine fetal serum). After adding the test compound having 1000× concentration (1 μL), the cells were incubated for three days in a CO2 incubator (37° C., 5% CO2). After exchanging the medium, the cells were further incubated for three days. Then, the cells were collected and counted. After adjusting them to have 3×10^5 cells, the amount of hemoglobin produced in the cells was determined by measuring fluorescence of the porphyrin ring. Specifically, the cells which had been collected by centrifugation were suspended in 2 M oxalic acid solution (500 μL) and boiled for 30 minutes under heating. After cooling the cells, the fluorescence intensity was measured by Fluorescence micro plate reader (Spectra MAX GeminiEM, manufactured by Molecular Devices Corporation) ([…]). When hemoglobin amount in non-stimulated state, i.e., without addition of any compound, was 100%, the production amount of hemoglobin induced by each compound was calculated (% of control).

Compound	activity at 6 µM [%]
CC(=O)N1c2cc(F)ccc2[C@H](Oc2ccccc2)C[C@@H]1C (relative stereo) [Compound 32, cis-1-acetyl-7-fluoro-2-methyl-4-phenoxy-1,2,3,4-tetrahydroquinoline]	145
CC(=O)N1c2c(F)cccc2[C@H](Oc2ccccc2)C[C@@H]1C (relative stereo) [Compound 33, cis-1-acetyl-8-fluoro-2-methyl-4-phenoxy-1,2,3,4-tetrahydroquinoline]	115
CC(=O)N1c2ccc(F)cc2[C@H](Oc2ccccc2)C[C@@H]1C (relative stereo) [Compound 35, cis-1-acetyl-6-fluoro-2-methyl-4-phenoxy-1,2,3,4-tetrahydroquinoline]	287
CC(=O)N1c2cc(F)ccc2[C@H](Nc2cccc(F)c2)C[C@@H]1C (relative stereo) [Compound 58, cis-1-acetyl-7-fluoro-4-[(3-fluorophenyl)amino]-2-methyl-1,2,3,4-tetrahydroquinoline]	107
CC(=O)N1c2ccccc2[C@H](Oc2ccc(OCc3ccccc3)cc2)C[C@@H]1C (relative stereo) [Compound 64, cis-1-acetyl-4-(4-benzyloxyphenoxy)-2-methyl-1,2,3,4-tetrahydroquinoline]	113
CC(=O)N1c2ccc(C(N)=O)cc2[C@H](Nc2ccc(NS(C)(=O)=O)cc2)C[C@@H]1C (relative stereo) [Compound 102, cis-1-acetyl-4-[(4-methanesulfonylaminophenyl)amino]-2-methyl-1,2,3,4-tetrahydroquinoline-6-carboxamide]	91
CC(=O)N1c2ccc(C(N)=O)cc2[C@H](Nc2ccc(CC(N)=O)cc2)C[C@@H]1C (relative stereo) [Compound 106, cis-1-acetyl-4-[(4-carbamoylmethylphenyl)amino]-2-methyl-1,2,3,4-tetrahydroquinoline-6-carboxamide]	227
CC(=O)N1c2ccccc2[C@H](Nc2ccccc2C(=O)O)C[C@@H]1C (relative stereo) [Compound 109, cis-1-acetyl-4-[(2-carboxyphenyl)amino]-2-methyl-1,2,3,4-tetrahydroquinoline]	229
CC(=O)N1c2ccccc2[C@H](Nc2ccc(Cc3ccccc3)cc2)C[C@@H]1C (relative stereo) [Compound 112, cis-1-acetyl-4-[(4-benzylphenyl)amino]-2-methyl-1,2,3,4-tetrahydroquinoline]	139
COc1ccc2c(c1)C(Nc1ccc(F)cc1)CC(C)N2C(C)=O (centres unmarked) [Compound 37, 1-acetyl-4-[(4-fluorophenyl)amino]-2-methyl-6-methoxy-1,2,3,4-tetrahydroquinoline]	494
COc1ccc2c(c1)N(C(C)=O)C(C)CC2Nc1ccccc1 (centres unmarked) [Compound 48, 1-acetyl-2-methyl-7-methoxy-4-phenylamino-1,2,3,4-tetrahydroquinoline]	139
CCC1CC(Nc2ccccc2)c2ccccc2N1C(C)=O (centres unmarked) [Compound 59, 1-acetyl-2-ethyl-4-phenylamino-1,2,3,4-tetrahydroquinoline]	108
CC(=O)N1CC(C)(C)C(Nc2ccccc2)c2ccccc21 (stereo not drawn) [Compound 60, cis-1-acetyl-3,3-dimethyl-4-phenylamino-1,2,3,4-tetrahydroquinoline]	113
COc1cccc2c1N(C(C)=O)C(C)CC2Nc1ccccc1 (centres unmarked) [Compound 61, 1-acetyl-4-phenylamino-8-methoxy-2-methyl-1,2,3,4-tetrahydroquinoline]	132
CC(=O)N1c2c(Br)cccc2C(Nc2ccccc2)CC1C (centres unmarked) [Compound 63, 1-acetyl-8-bromo-4-phenylamino-2-methyl-1,2,3,4-tetrahydroquinoline]	98
CC1CC(Nc2ccc(F)cc2)c2cc(F)ccc2N1C(=O)C1CCCC1 (centres unmarked) [Compound 66, 1-cyclopentanecarbonyl-6-fluoro-2-methyl-4-[(4-fluorophenyl)amino]-1,2,3,4-tetrahydroquinoline]	151
CC(=O)N1c2ccccc2C(Oc2ccc([N+](=O)[O-])cc2)CC1C (centres unmarked) [Compound 67, 1-acetyl-2-methyl-4-(4-nitrophenoxy)-1,2,3,4-tetrahydroquinoline]	119
CC(=O)N1c2ccccc2C(Oc2ccc(N)cc2)CC1C (centres unmarked) [Compound 68, 1-acetyl-4-(4-aminophenoxy)-2-methyl-1,2,3,4-tetrahydroquinoline]	154

Compound	activity at 6 µM [%]
CC(=O)N1c2ccc(NCCO)cc2C(Nc2ccc(Cl)cc2)CC1C (centres unmarked) [Compound 82, 1-acetyl-4-[(4-chlorophenyl)amino]-6-[(2-hydroxy)ethylamino]-2-methyl-1,2,3,4-tetrahydroquinoline]	325
CC(=O)N1c2ccc(N3CC(C)OC(C)C3)cc2C(Nc2ccc(Cl)cc2)CC1C (stereo not drawn) [Compound 83, 1-acetyl-4-[(4-chlorophenyl)amino]-6-[(cis-3,5-dimethyl)morpholino]-2-methyl-1,2,3,4-tetrahydroquinoline]	282
CC(=O)N1c2ccc(N3CCN(C(=O)C(C)C)CC3)cc2C(Nc2ccc(Cl)cc2)CC1C (centres unmarked) [Compound 84, 1-acetyl-4-[(4-chlorophenyl)amino]-6-[(4-isopropylcarbonyl)piperazino]-2-methyl-1,2,3,4-tetrahydroquinoline]	286
CC(=O)N1c2ccc(N3CCN(C(=O)c4ccccc4)CC3)cc2C(Nc2ccc(Cl)cc2)CC1C (centres unmarked) [Compound 86, 1-acetyl-6-[(4-benzoyl)piperazino]-2-methyl-4-[(4-chlorophenyl)amino]-1,2,3,4-tetrahydroquinoline]	237
CCN(CC)C(=O)N1CCN(c2ccc3c(c2)C(Nc2ccc(Cl)cc2)CC(C)N3C(C)=O)CC1 (centres unmarked) [Compound 87, 1-acetyl-4-[(4-chlorophenyl)amino]-6-[4-(N,N-diethylaminocarbonyl)piperazino]-2-methyl-1,2,3,4-tetrahydroquinoline]	262
CC(=O)N1c2ccc(N3CCN(C(=O)NC(C)C)CC3)cc2C(Nc2ccc(Cl)cc2)CC1C (centres unmarked) [Compound 88, 1-acetyl-4-[(4-chlorophenyl)amino]-6-[4-(isopropylaminocarbonyl)piperazino]-2-methyl-1,2,3,4-tetrahydroquinoline]	112
CC(=O)N1c2ccc(N3CCOCC3)cc2C(Nc2ccc(CC(=O)O)cc2)CC1C (centres unmarked) [Compound 89, 1-acetyl-4-[(4-carboxymethylphenyl)amino]-6-morpholino-2-methyl-1,2,3,4-tetrahydroquinoline]	154
CC(=O)N1c2ccc(N3CCOCC3)cc2C(Nc2ccc(CC(N)=O)cc2)CC1C (centres unmarked) [Compound 90, 1-acetyl-4-[(4-carbamoylmethylphenyl)amino]-2-methyl-6-morpholino-1,2,3,4-tetrahydroquinoline]	241
CC(=O)N1CCN(c2ccc3c(c2)C(Nc2ccc(CC(=O)O)cc2)CC(C)N3C(C)=O)CC1 (centres unmarked) [Compound 91, 1-acetyl-6-(4-acetylpiperazinyl)-4-[(4-carboxymethylphenyl)amino]-2-methyl-1,2,3,4-tetrahydroquinoline]	130
CC(=O)N1c2ccc(C(=O)N3CCOCC3)cc2C(Nc2ccc(Cl)cc2)CC1C (centres unmarked) [Compound 93, 1-acetyl-4-[(4-chlorophenyl)amino]-6-[(1-morpholino)carbonyl]-2-methyl-1,2,3,4-tetrahydroquinoline.hydrochloride]	245
CC(=O)N1CCN(c2ccc3c(c2)C(Nc2ccc(N4CCOCC4)cc2)CC(C)N3C(C)=O)CC1 (stereo not drawn) [Compound 94, cis-1-acetyl-6-[(4-acetyl)piperazino]-2-methyl-4-[(4-morpholinophenyl)amino]-1,2,3,4-tetrahydroquinoline.3 hydrochloride]	199
CC(=O)Nc1ccc2c(c1)C(Nc1ccc(Cl)cc1)CC(C)N2C(C)=O (centres unmarked) [Compound 96, 1-acetyl-6-acetylamino-4-[(4-chlorophenyl)amino]-2-methyl-1,2,3,4-tetrahydroquinoline]	530
CC(=O)N1c2ccc(NS(C)(=O)=O)cc2C(Nc2ccc(N3CCOCC3)cc2)CC1C (centres unmarked) [Compound 98, 1-acetyl-6-methanesulfonylamino-2-methyl-4-[(4-morpholinophenyl)amino]-1,2,3,4-tetrahydroquinoline]	56
CCOC(=O)Cc1ccc(NC2CC(C)N(C(C)=O)c3ccc(NS(C)(=O)=O)cc32)cc1 (centres unmarked) [Compound 99, 1-acetyl-6-methanesulfonylamino-2-methyl-4-[(4-ethoxycarbonylmethylphenyl)amino]-1,2,3,4-tetrahydroquinoline]	69
CC(=O)N1c2ccc(C(=O)O)cc2C(Nc2ccc(F)cc2)CC1C (centres unmarked) [Compound 100, 1-acetyl-4-[(4-fluorophenyl)amino]-2-methyl-1,2,3,4-tetrahydroquinoline-6-carboxylic acid]	105
CCOC(=O)c1ccc2c(c1)C(Nc1ccc(NS(C)(=O)=O)cc1)CC(C)N2C(C)=O (centres unmarked) [Compound 101, ethyl 1-acetyl-4-[(4-methanesulfonylaminophenyl)amino]-2-methyl-1,2,3,4-tetrahydroquinoline-6-carboxylate]	508
COC(=O)c1cc(NC2CC(C)N(C(C)=O)c3ccccc32)ccc1O (centres unmarked) [Compound 108, 1-acetyl-4-[(4-hydroxy-3-methoxycarbonylphenyl)amino]-2-methyl-1,2,3,4-tetrahydroquinoline.hydrochloride]	399
